# Measured values published in ChEMBL document CHEMBL3769367, “Orexin Receptor Antagonists: New Therapeutic Agents for the Treatment of Insomnia” (J Med Chem, 2016).
# Tests used:
# [1] = molecular target: T1, Orexin receptor type 2 (Homo sapiens) (UniProt O43614)
# T1 sequence (whole entry): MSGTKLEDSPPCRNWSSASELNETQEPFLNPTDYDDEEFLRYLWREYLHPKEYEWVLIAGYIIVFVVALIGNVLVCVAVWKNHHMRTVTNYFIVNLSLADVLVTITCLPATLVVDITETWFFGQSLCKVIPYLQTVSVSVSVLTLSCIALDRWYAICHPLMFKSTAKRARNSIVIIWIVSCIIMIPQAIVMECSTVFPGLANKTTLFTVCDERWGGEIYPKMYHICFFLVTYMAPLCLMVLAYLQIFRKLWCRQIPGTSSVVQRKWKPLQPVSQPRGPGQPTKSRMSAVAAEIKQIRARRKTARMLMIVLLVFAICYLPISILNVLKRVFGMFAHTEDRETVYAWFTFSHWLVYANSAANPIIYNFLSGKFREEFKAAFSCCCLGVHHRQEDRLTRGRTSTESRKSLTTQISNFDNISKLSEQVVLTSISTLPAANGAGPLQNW
# Description: Antagonist activity at OX2R (unknown origin)
# Homo sapiens = organism: Homo sapiens; test: Selectivity ratio of IC50 for OX2R (unknown origin) to IC50 for OX1R (unknown origin)
# Orexin receptor type 2 = molecular target: T2, Orexin receptor type 2 (Homo sapiens, UniProt O43614); test: Binding affinity to OX2R (unknown origin)
# T2 sequence (O43614 whole entry): T1 sequence (whole entry)
# [2] = molecular target: T3, Orexin/Hypocretin receptor type 1 (Homo sapiens, UniProt O43613); test: Binding affinity to OX1R (unknown origin)
# T3 sequence (O43613 whole entry): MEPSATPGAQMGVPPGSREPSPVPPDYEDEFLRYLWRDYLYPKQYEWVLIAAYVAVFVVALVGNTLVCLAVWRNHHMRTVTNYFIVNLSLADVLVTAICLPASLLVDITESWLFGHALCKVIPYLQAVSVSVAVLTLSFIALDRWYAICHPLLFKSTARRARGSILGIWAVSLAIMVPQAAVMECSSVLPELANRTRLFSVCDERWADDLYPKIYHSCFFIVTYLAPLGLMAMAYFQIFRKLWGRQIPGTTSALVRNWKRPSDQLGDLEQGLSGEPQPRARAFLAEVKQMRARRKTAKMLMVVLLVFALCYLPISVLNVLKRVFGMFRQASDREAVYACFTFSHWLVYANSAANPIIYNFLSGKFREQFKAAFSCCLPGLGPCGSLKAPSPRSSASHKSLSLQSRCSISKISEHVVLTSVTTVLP
pKb [1],Ratio IC50 (Homo sapiens),Ki (Orexin receptor type 2),Ki [2],Structure (SMILES)
8.3,,,,CC1(C)OC[C@H](NC(=O)Nc2ccc(Br)cc2Br)[C@H](c2ccccc2)O1
,68,,,COc1ccc(CC2c3cc(OC)c(OC)cc3CCN2CC(=O)NCc2ccccc2)cc1OC (stereo unspecified)
,,22 nM,34 nM,Cc1ccc(-n2nccn2)c(C(=O)N2C[C@@H](COc3ccc(F)c(C)c3)CC[C@H]2C)c1 (racemic)
,,0.1 nM,0.3 nM,Cc1ccc(-n2nccn2)c(C(=O)N2C[C@H](COc3ccc(F)c(C)c3)CC[C@H]2C)c1 (racemic)
